What all share (assay type): biochemical
For one experiment, the target named is T1, M.TaqI (Thermus aquaticus, UniProt P14385).
T1 construct: made in house
Nature of the experiment: Modification of adenine-N6 in duplex oligodeoxynucleotide I.II by M.TaqI, nucleoside analysis by HPLC/ESI-MS. Particulars: 37° C. over night, near-stoichiometric enzyme. An excerpt:
Transfer of the activated ethyl (CH2CH3), propyl (CH2CH2CH3), prop-2-enyl (CH2CHCH2), prop-2-ynyl group (CH2CCH), but-2-ynyl (CH2CCCH3), pent-2-ynyl (CH2CCCH2CH3) or benzyl group (CH2C6H5) from cofactors 3-9 by the DNA adenine-N6 methyltransferase M.TaqI, the DNA cytosine-C5 methyltransferase M.HhaI variant Q82A or the DNA cytosine-N4 methyltransferase M.BcnIB to DNA was first investigated using short duplex oligodeoxynucleotides as substrates. After enzymatic transfer the duplex oligodeoxynucleotides were enzymatically fragmented and the resulting modified nucleosides were analyzed by reversed-phase HPLC coupled with ESI-MS.
M.TaqI was denatured by heating to 95° C. for 10 min and removed by centrifugation ([…], 2 min). The modified duplex oligodeoxynucleotides I^Z—R-II were desalted by gel filtration (NAP-5 column, Amersham Biosciences, Freiburg, Germany), eluted with water (1 mL) and lyophilized.
The modified duplex oligodeoxynucleotides I^Z—R-II were dissolved in buffer (100 μL, 10 mM Tris hydrochloride, 10 mM magnesium chloride, 1 mM zinc acetate, pH 7.5) containing Nuclease PI (1500 u, Sigma, Taufkirchen, Germany) and calf intestine alkaline phosphatase (30 u, MBI Fermentas, St. Leon-Rot, Germany) and incubated at 37° C. for 4 h. Nucleosides were analyzed by reversed-phase HPLC (Symmetry-C18 5 μm, 100 Å, 250×4.6 mm, equipped with a Symmetry-C18 5 μm, 100 Å, 20×4.6 mm pre-column, Waters, Eschborn, Germany). Compounds were eluted with acetonitrile (5% for 7 min, followed by linear gradients to 6% in 15 min, to 35% in 8 min and to 70% in 2 min) in triethylammonium acetate buffer (10 mM, pH 7.0) at a flow of 1 mL/min and detected at 254 nm.
For HPLC-coupled ESI-MS measurements compounds were eluted with methanol (0% for 3 min, followed by a linear gradient to 100% in 22 min) in ammonium formate buffer (20 mM, pH 3.5). A post-column mobile phase modification (equal co-flow of 96% methanol, 4% formic acid) was used to enhance the detection efficiency of 2′-deoxyadenosine and its derivatives. Mass spectra were recorded in 200-370 m/z range.
The hemimethylated duplex oligodeoxynucleotide I.II (compare Scheme 5, Example 2A) was produced by mixing equal molar amounts of complementary single-stranded oligodeoxynucleotide I (5′-GCCGCTCGATGCCG-3′) (SEQ. ID NO. 1) and II (5′-CGGCATCGA^MeGCGGC-3′, A^Me=N6-methyl-2′-deoxyadenosine) (SEQ ID NO. 2) in water, heating at 85° C. for 5 min and slow cooling to room temperature. […] The solution was heated to 95° C. for 10 min, supplemented with Proteinase K and incubated at 55° C. for 2 h. Hydrolysis products were removed by gel filtration (G-25 column, Amersham Biosciences).
The obtained solution was treated with buffer ( 1/10 volume, 100 mM Tris hydrochlorid, 100 mM magnesium chloride, 10 mM zinc acetate, pH 7.5) containing Nuclease P1 (1.14 u, Sigma, Taufkirchen, Germany) and calf intestine alkaline phosphatase (18 u, MBI Fermentas), incubated at 42° C. for 4 h and passed through a Microcon YM-3 spin column (Amicon). Nucleosides were analyzed by reversed-phase HPLC (Discovery HS C18 75×2.1 mm, 3 μm, equipped with a Supelguard Discovery HS C18 20×2.1 mm, 5 μm, pre-column, Supelco, Germany) coupled with a mass spectrometric detector (HP 1100 series ESI-MS equipped with single quadruple). Compounds were eluted with methanol (0% for 3 min, followed by linear gradients to 20% in 15 min and to 80% in 2 min) in ammonium formate buffer (20 mM, pH 3.5) at a flow of 0.3 mL/min. For on-line mass spectrometric detection post-column mobile phase modification (equal co-flow of 96% methanol, 4% formic acid and 1 mM sodium hydroxide) was used to enhance the detection efficiency of 2′-deoxyadenosine, 2′-deoxycytidine and their derivatives. Mass spectra were recorded in 50-600 m/z range.

Another experiment deals with T2, M.HhaI-Q82A (Haemophilus parahaemolyticus, UniProt P05102, Q82A).
T2 construct: made in house
Nature of the experiment: DNA protection assay with M.HhaI variant Q82A on phage lambda DNA. Particulars: 1.16 μg phage lambda DNA, cofactor 300 μM, 37° C. for 4 h, then R.Hin6I; pH 7.4 (pH 6.0 for cofactor 6). An excerpt:
(§1) Transfer kinetics of the activated ethyl (—CH2CH3), propyl (—CH2CH2CH3), prop-2-enyl (—CH2CH═CH2), prop-2-ynyl (—CH2C≡CH), but-2-ynyl (—CH2C≡CCH3), pent-2-ynyl (—CH2C≡CCH2CH3) and benzyl group (—CH2C6H5) from cofactors 3-9 by the DNA adenine-N6 methyltransferase M.TaqI and its variant V21 G, the DNA cytosine-C5 methyltransferase M.HhaI and its variant Q82A, the DNA cytosine-N4 methyltransferase M.BcnIB and the DNA cytosine-C5 methyltransferase M.SssI variant Q142A to phage lambda DNA (48502 base pairs) were investigated using a DNA protection assay. This assay makes use of the fact that DNA methyltransferase-catalyzed modifications of nucleobases within the recognition sequences of restriction endonucleases can protect the DNA against fragmentation by these enzymes. […] Unmodified DNA containing 5′-TCGA-3′ recognition sequences is readily fragmentated by R.TaqI. After DNA modification by M.TaqI in the presence of a cofactor with an activated group Z—R modified 5′-TCGA^Z—R-3′ sequences are formed and, as a result, R.TaqI is unable to fragment the modified DNA. Occurrence of fragmentation is then analyzed by agarose gel electrophoresis.
(§2) By varying the amounts of DNA methyltransferase, this assay is used to investigate the enzymatic activities of the different DNA methyltransferases with cofactors 3-9 and compare them to the enzymatic activities with the natural cofactor 1. The minimal amount of DNA methyltransferase needed to fully protect 1 μg of phage lambda DNA against restriction endonuclease fragmentation under the given experimental conditions is defined as one enzyme unit (u).
(§3) Afterwards, the reactions were stopped by heating to 80° C. for 10 min. […] Parallel control experiments were performed with phage lambda DNA in the absence of M.HhaI and in the presence of M.HhaI (278 ng).
The DNA protection assay with the M.HhaI variant Q82A (see Example 2B) was performed as described for the wild type enzyme (Example 3B.1).

A further experiment deals with T3, M.HhaI (Haemophilus parahaemolyticus, UniProt P05102).
T3 construct: made in house
The experiment is described as follows: DNA protection assay with M.HhaI (wild-type) on phage lambda DNA. The settings on record: 1.16 μg phage lambda DNA, cofactor 300 μM, 37° C. for 4 h, then R.Hin6I; pH 7.4 (pH 6.0 for cofactor 6).
Text: as §1, §2, §3

T3 sequence (P05102 whole entry): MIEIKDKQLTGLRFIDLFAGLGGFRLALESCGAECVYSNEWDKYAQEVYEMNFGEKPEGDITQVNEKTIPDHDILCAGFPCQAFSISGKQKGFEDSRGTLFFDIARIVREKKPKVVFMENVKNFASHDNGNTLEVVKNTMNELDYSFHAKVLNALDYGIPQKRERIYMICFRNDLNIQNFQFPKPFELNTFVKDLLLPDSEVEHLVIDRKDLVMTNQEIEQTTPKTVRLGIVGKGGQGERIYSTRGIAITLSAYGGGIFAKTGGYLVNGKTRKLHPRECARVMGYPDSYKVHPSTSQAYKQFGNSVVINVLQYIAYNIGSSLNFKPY
T1 sequence (P14385 whole entry): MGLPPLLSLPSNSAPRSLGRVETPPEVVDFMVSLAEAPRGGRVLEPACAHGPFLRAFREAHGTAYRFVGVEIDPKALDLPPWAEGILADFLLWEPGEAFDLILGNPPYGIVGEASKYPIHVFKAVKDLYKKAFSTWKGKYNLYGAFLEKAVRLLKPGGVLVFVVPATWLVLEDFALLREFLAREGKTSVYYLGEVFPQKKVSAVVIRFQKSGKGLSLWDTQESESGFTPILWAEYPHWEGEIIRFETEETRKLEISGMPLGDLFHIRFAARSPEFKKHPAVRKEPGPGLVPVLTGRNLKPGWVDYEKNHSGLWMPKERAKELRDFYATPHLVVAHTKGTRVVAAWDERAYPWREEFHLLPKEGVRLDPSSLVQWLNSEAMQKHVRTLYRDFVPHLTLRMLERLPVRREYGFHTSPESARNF
T2 sequence (P05102 whole entry Q82A): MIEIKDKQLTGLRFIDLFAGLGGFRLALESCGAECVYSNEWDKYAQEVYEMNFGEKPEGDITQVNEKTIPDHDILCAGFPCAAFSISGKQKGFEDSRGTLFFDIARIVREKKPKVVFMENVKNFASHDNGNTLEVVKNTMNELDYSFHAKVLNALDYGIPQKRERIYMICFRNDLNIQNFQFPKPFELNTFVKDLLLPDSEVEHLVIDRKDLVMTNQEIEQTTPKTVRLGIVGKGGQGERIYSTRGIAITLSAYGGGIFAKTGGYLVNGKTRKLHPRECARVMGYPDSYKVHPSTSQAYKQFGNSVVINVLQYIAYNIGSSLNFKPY

As for `CC[S+](CCC(N)C(=O)O)CC1OC(n2cnc3c(N)ncnc32)C(O)C1O` (centres unmarked) [Cofactor 3], the “cofactor function for M.TaqI (transfer of group Z-R to adenine-N6)” value (shortened to “cofactor function for M.TaqI”) at M.TaqI is on record as “functions as a cofactor”. The “specific activity of M.HhaI-Q82A with the cofactor” value (“specific activity of M.HhaI-Q82A” for short) on M.HhaI-Q82A stood at 7 u/μg.
`C#CC[S+](CCC(N)C(=O)O)CC1OC(n2cnc3c(N)ncnc32)C(O)C1O` (centres unmarked) [Cofactor 6]: at M.TaqI, the “cofactor function for M.TaqI” value was “functions as a cofactor”.
On to `C=CC[S+](CCC(N)C(=O)O)CC1OC(n2cnc3c(N)ncnc32)C(O)C1O` (centres unmarked) [Cofactor 5], for which, on M.HhaI, the “specific activity of M.HhaI with the cofactor” value is given as 7 u/μg. Also, at M.TaqI, the “cofactor function for M.TaqI” value is given as “functions as a cofactor”. The “specific activity of M.HhaI-Q82A” value on M.HhaI-Q82A came out at 29 u/μg.
On the same counts, the results for `CCC[S+](CCC(N)C(=O)O)CC1OC(n2cnc3c(N)ncnc32)C(O)C1O` (centres unmarked) [Cofactor 4] are 0 u/μg, “functions as a cofactor” and 0 u/μg.
Consider `NCCCC(=O)NCC#CC[S+](CCC(N)C(=O)O)CC1OC(n2cnc3c(N)ncnc32)C(O)C1O` (centres unmarked) [Cofactor 10], for which the “cofactor function for M.TaqI” value on M.TaqI is “functions as a cofactor”.
As for `CC#CC[S+](CCC(N)C(=O)O)CC1OC(n2cnc3c(N)ncnc32)C(O)C1O` (mixture of isomers) [Cofactor 7], the “specific activity of M.HhaI with the cofactor” value on M.HhaI turned out to be 29 u/μg. The “cofactor function for M.TaqI” value at M.TaqI is recorded as “functions as a cofactor”. Moreover, the “specific activity of M.HhaI-Q82A” value at M.HhaI-Q82A is given as 58 u/μg.
`CCC#CC[S+](CCC(N)C(=O)O)CC1OC(n2cnc3c(N)ncnc32)C(O)C1O` (centres unmarked) [Cofactor 8]: the “cofactor function for M.TaqI” value at M.TaqI is reported as “functions as a cofactor”.

Values taken from patent publication US8008007B2, “S-adenosyl-L-methionine analogs with extended activated groups for transfer by methyltransferases” (RWTH Aachen, priority 2005, dated 2011).
